Measured values published in patent US5597824A, “Analogs of oxetanyl purines and pyrimidines” (Abbott Laboratories, priority 1992, dated 1997).
≈ marks a conversion by molar mass, not a printed value.

What was measured:
Vero cells = experiment: Cell viability (MTT) of uninfected test-compound control wells; type: cell-based, African green monkey; conditions: cell viability reduced by 25%
Description: Vero cells were pregrown as monolayers in wells of COSTAR 96-well tisue culture plates using suitable cell culture media. Stock viruses were pretitered according to the method of Reed and Muench (Amer. J. Hyg. 27 493 (1938)) and diluted in cell culture medium to yield 32 CCID50 (cell culture infectious dose, 50%) units per 0.1 mL. Antiviral assays were designed to test six concentrations of each compound, from cytotoxic to noncytotoxic levels, in triplicate against each of the challenge viruses in microtiter plate wells containing cell monolayers. To each of the replicate cell cultures were added 0.1 mL of the test-compound solution and 0.1 mL of virus suspension. Two compounds were evaluated per plate. The following controls were included:
(3) Test-compound cytotoxicity controls containing uninfected, test-compound treated cells;
The covered plates were incubated at 37° C. in a humidified atmosphere containing 2% CO2. When cytopathogenic effect (CPE) in untreated virus control wells reached 100%, 20 μL of 3-(4,5-dimethyl-thiazol-2-yl)-2,5-diphenyl tetrazolium bromide (MTT) (dissolved in PBS at 5 mg/mL) was pipetted into each of the plate wells. The plates were incubated at 37° C. for six hours; then 40 μL of 30% SDS (in 0.02N HCl) was added to each well. After overnight incubation at 37° C. the blue color or the MTT formazan was measured spectrophotometrically at 570 nm. The optical density (OD) value of each culture is a function of the amount of formazan produced which is proportional to the number of viable cells. A computer program was utilized to calculate the percent (CPE) reciprocal of % CPE reduction) of the virus-infected wells and % cell viability of the uninfected test-compound control wells.
The IC50 value is the minimum test-compound concentration (μg/mL) that inhibited CPE by 50%, calculated by using a regression analysis program for semilog curve fitting. The TC25 value is the minimum test-compound concentration (μg/mL) that reduced cell viability by 25%.

[1] = system: Herpes simplex type 1 (HSV-1) strain E-377; experiment: CPE-inhibition assay, HSV-1 strain E-377 in Vero cells; type: cell-based, Herpes simplex virus type 1; conditions: HSV-1 (E-377), minimum cytotoxic concentration / ID50
Description: (§1) The challenge viruses were propagated and assayed in cells that were pregrown as monolayer cultures in plastic tissue culture flasks and 96-well plates, using cell culture media appropriate for the host cell cultures. The following viruses and host cell cultures were employed:
(§2) green monkey kidney (Vero)
(§3) On the day of use, a weighed sample of each compound to be evaluated was dissolved and diluted in serial 10^0.5 dilutions in the culture medium appropriate for each virus-host cell system.
Mammalian cells were pregrown as monolayers in wells of COSTAR 96-well tissue culture plates using suitable cell culture media. Stock viruses were pretitered according to the method of Reed and Muench (Amer. J. Hyg. 27:493-497, 1938) and diluted in cell culture medium to yield 32 CCID50 (cell culture infectious dose, 50%) units per 0.1 ml. Antiviral assays were designed to test seven concentrations of each compound, from cytotoxic to noncytotoxic levels, in triplicate against each of the challenge viruses in microtiter plate wells containing suitable cell monolayers. To each of the replicate cell cultures were added 0.1 ml of the test drug solution and 0.1 ml of virus suspension. Cell controls containing medium alone, virus controls containing medium and virus, and drug cytotoxicity controls containing medium and each drug concentration were run simultaneously with the test samples assayed in each experiment. […]
(§4) Antiviral activity was determined by calculating the degree of inhibition of virus-induced CPE in drug-treated, virus-infected cell cultures by means of a virus rating (VR). The VR is a standard weighted measurement of antiviral activity taking into account both the degree of CPE inhibition and drug cytotoxicity, and is determined by a modification of the method of Ehrlich et al. (Ann. N.Y. Acad. Sci. 130: 5-16, 1965) as described below. […]
(§5) The VR was calculated as 0.1 of the sum of the numerical differences between the recorded CPE grade of each test well and that of the corresponding virus control in the culture plate. […]

[2] = system: Herpes simplex type 2 (HSV-2) strain MS; experiment: CPE-inhibition assay, HSV-2 strain MS in Vero cells; type: cell-based, Herpes simplex virus type 2; conditions: HSV-2 (MS), minimum cytotoxic concentration / ID50
Description: as §1, §2, §3
Mammalian cells were pregrown as monolayers in wells of COSTAR 96-well tissue culture plates using suitable cell culture media. […]
as §4, §5

[3] = system: Human Cytomegalovirus (HCMV) strain AD169; experiment: Virus yield reduction assay, HCMV in MRC5 cells; type: cell-based
Description: Human diploid embryonic lung (MRC5) cells were grown in 35 mm wells of 6-well tissue culture plates. Subconfluent cell monolayers were rinsed with phosphate-buffered saline (PBS) and were exposed to 0.5 ml/well of HCMV (strain AD169) suspension for 1.5 hours at 37° C. The virus suspension was diluted in MEM+2% fetal bovine serum (FBS) to yield a multipicity of infection (MOI) of approximately 0.1 plaque forming units (PFU)/cell. Following the virus adsorption period, the inocula were removed and infected cell layers were rinsed with PBS. Aliquiots (2.0 ml) of each test drug concentration (dissolved in MEM supplemented with 2% FBS) were dispensed into triplicate cell cultures: two virus-infected cultures and one uninfected cytotoxicity control culture (exposed to medium without virus for 1.5 hours). Untreated virus-infected control cultutres and untreated, uninfected cell control cutures were fed with medium alone. The culture plates were incubated at 37° C. in a humidified atmosphere of 2% CO2 in air. All cell culture fluids were replaced with fresh drug and medium 48 hours postinfection (p.i.). On Day 6 p.i., the cell layers were examined microscopically for cytopathogenic effect (CPE) and drug cytotoxicity. The test and virus control cultures were then harvested by subjecting the cell layers to one cycle of freeze-thawing. The cellular material was scraped into the ambient medium and the contents from replicate cultures were pooled, dispensed into cryotubes and stored at -135° C. The harvested test and virus control samples were thawed and the infectious virus yield was determined by plaque assay in MRC5 cells grown in 12-well cluster plates. Inhibiton of HCMV replication by each test compound was determined by comparing the progeny virus yields in the drug-treated cultures with the progeny virus yeild in the untreated, virus-infected control cultures.

Structure (SMILES): C=Cc1cn([C@@H]2O[C@H](CO)[C@H]2CO)c(=O)[nH]c1=O [Example 61, 1-([2'R, 3'R, 4'S]-3',4'-Bis(hydroxmethyl)-2'-oxetanyl)-5-vinyluracil]
- TC25 (Vero cells; HSV-2 (MS) line): ≥ 254 µg/mL

Structure (SMILES): O=c1[nH]c(=O)n([C@@H]2O[C@H](CO)[C@H]2CO)cc1C=CI [Example 49, 1([2'R,3'R,4'S]-3',4'-n-Bis(hydroxmethyl)-2'-oxetanyl)-5-(2-iodo-1-vinyl)uracil]
- TC25 (Vero cells; HSV-1 (E-377) line): > 380 µg/mL

Structure (SMILES): O=c1[nH]c(=O)n([C@@H]2O[C@H](CO)[C@H]2CO)cc1C=CBr [Example 44, 1-([2'R, 3'R, 4'S]-3', 4'-Bis(hydroxmethyl)-2'-oxetanyl)-5-(2-bromo-1-vinyl)uracil]
- TC25 (Vero cells; HSV-1 (E-377) line): 289 µg/mL (≈ 868 µM)

Structure (SMILES): Cc1cn([C@@H]2O[C@H](CO)[C@H]2CO)c(=O)[nH]c1=O [Example 21, 1-([2'R,3'R,4'S]-3',4'-Bis(hydroxmethyl)-2'-oxetanyl)5-methyluracil]
- TI (Therapeutic Index) [1]: 1552
- TI (Therapeutic Index) [2]: > 7.2

Structure (SMILES): Nc1ccn([C@@H]2O[C@H](CO)[C@H]2CO)c(=O)n1 [Example 22, 1-([2'R,3'R,4'S]-3',4'-Bis(hydroxmethyl)-2'-oxetanyl)cytosine]
- TI (Therapeutic Index) [1]: 13.1
- TI (Therapeutic Index) [2]: 9.7
- HCMV yield ([3]; 0.032 μg/ml): 3.8 log10 PFU/ml
- HCMV yield ([3]; 0.1 μg/ml): 3.1 log10 PFU/ml
- HCMV yield ([3]; 0.32 μg/ml): 2.6 log10 PFU/ml
- HCMV yield ([3]; 1.0 μg/ml): 0.4 log10 PFU/ml
- HCMV yield ([3]; 3.2 μg/ml): < 0.1 log10 PFU/ml
- HCMV yield ([3]; 10 μg/ml): < 0.1 log10 PFU/ml

Structure (SMILES): O=c1[nH]c(=O)n([C@@H]2O[C@H](CO)[C@H]2CO)cc1Br [Example 43, 1-([2'R, 3'R, 4'S]-3', 4'-Bis(hydroxmethyl)-2'-oxetanyl)-5-bromouracil]
- TC25 (Vero cells; HSV-1 (E-377) line): 18.4 µg/mL (≈ 59.9 µM)
- TC25 (Vero cells; HSV-2 (MS) line): > 307 µg/mL

Structure (SMILES): O=c1ccn([C@@H]2O[C@H](CO)[C@H]2CO)c(=O)[nH]1 [Example 23, 1-([2'R,3'R,4'S]-3',4'-Bis(hydroxmethyl)-2'-oxetanyl)uracil]
- TI (Therapeutic Index) [1]: 1.0
- HCMV yield ([3]; 3.2 μg/ml): 4.7 log10 PFU/ml
- HCMV yield ([3]; 10 μg/ml): 4.5 log10 PFU/ml
- HCMV yield ([3]; 32 μg/ml): 4.4 log10 PFU/ml
- HCMV yield ([3]; 100 μg/ml): 4.0 log10 PFU/ml
- HCMV yield ([3]; 320 μg/ml): 3.0 log10 PFU/ml

Structure (SMILES): O=c1[nH]c(=O)n([C@@H]2O[C@H](CO)[C@H]2CO)cc1I [Example 42, 1-([2'R, 3'R, 4'S]-3', 4'-Bis(hydroxmethyl)-2'-oxetanyl)-5-iodouracil]
- TC25 (Vero cells; HSV-1 (E-377) line): > 354 µg/mL
- TC25 (Vero cells; HSV-2 (MS) line): > 354 µg/mL

Structure (SMILES): O=c1[nH]c(=O)n([C@@H]2O[C@H](CO)[C@H]2CO)cc1C=CCl [Example 50, 1-([2'R,3'R,4'S]-3',4'-Bis(hydroxymethyl)-2'-oxetanyl)-5-(2-chloro-1-vinyl)uracil]
- TC25 (Vero cells; HSV-1 (E-377) line): > 289 µg/mL
